In brackets after ≈: the same amount, converted by molar mass.

Data on 7 compounds can be found in article PMC8849072, “Sudapyridine (WX-081), a Novel Compound against Mycobacterium tuberculosis” (Microbiology Spectrum, 2022).

Data set [1] has as its system M. tuberculosis H37Rv. The data set can be described thus: MIC by microplate alamarBlue assay (MABA). The data set is classed as cell-based, Mycobacterium tuberculosis. To be noted: for MIC: Mycobacterium tuberculosis, H37RV.
The subject of data set [2] is M. tuberculosis susceptible strain 14280. The data set can be described thus: MIC by microplate alamarBlue assay (MABA). The settings on record: for MIC: Mycobacterium tuberculosis. The data set is classed as cell-based, Mycobacterium tuberculosis.
For data set [3], the system named is M. tuberculosis susceptible strain 14242. The data set can be described thus: MIC by microplate alamarBlue assay (MABA). The data set is classed as cell-based, Mycobacterium tuberculosis. The settings on record: for MIC: Mycobacterium tuberculosis. (Alamar Blue is a resazurin reagent that responds to reducing activity.)
Data set [4] concerns M. tuberculosis susceptible strain 14286. The data set can be described thus: MIC by microplate alamarBlue assay (MABA). The data set is classed as cell-based, Mycobacterium tuberculosis. The settings on record: for MIC: Mycobacterium tuberculosis.
The subject of data set [5] is M. tuberculosis susceptible strain 14241. The data set can be described thus: MIC by microplate alamarBlue assay (MABA). The data set is classed as cell-based, Mycobacterium tuberculosis. To be noted: for MIC: Mycobacterium tuberculosis.
Data set [6] deals with M. tuberculosis susceptible strain 14480. The data set can be described thus: MIC by microplate alamarBlue assay (MABA). In kind it is cell-based, Mycobacterium tuberculosis. To be noted: for MIC: Mycobacterium tuberculosis.
Data set [7] is described as follows: Pharmacokinetic study in rats. The data set is classed as in vivo, rat. To be noted: Rat; for At 96 h lung/plasma: lung: lung exposure at 96 h (first number of the pair); for At 96 h lung/plasma: plasma: plasma exposure at 96 h (second number of the pair); for AUC(0-inf): read-out: AUC0-inf; for AUC(0-t): read-out: AUC0-last; for half-life: plasma. As to the method: (§1) The BALB/c mice, rats, and beagle dogs were used in the PK study and fasted overnight before dosing. Animal doses were administered in two ways. […] Plasma samples were collected from three animals at each time point. Plasma concentrations were determined by liquid chromatography-tandem mass spectrometry (LC-MS/MS). The bioanalytical method by LC-MS/MS for pharmacokinetic (PK) studies in animal and toxicokinetic (TK) in tox studies have been validated. The total area under the concentration-time curve (AUC0-inf), the elimination half-time (t1/2), the peak concentration (Cmax), and the time to reach peak concentration (Tmax) of samples were determined directly from the experimental data using WinNonlin V6.2.1.

Data set [8] has as its system M. tuberculosis susceptible strain 14242. The data set can be described thus: MBC determination (CFU-based). To be noted: 7 days incubation, 3 log10 CFU decrease.
Data set [9] concerns M. tuberculosis H37Rv. The data set can be described thus: MBC determination (CFU-based). The settings on record: 7 days incubation, 3 log10 CFU decrease.
Data set [10] in a line: Pharmacokinetic study in mice. The data set is classed as in vivo, BALB/c mice. To be noted: Mice; for AUC(0-inf): read-out: AUC0-inf; for AUC(0-t): read-out: AUC0-last; for half-life: plasma; for At 96 h lung/plasma: lung: lung exposure at 96 h (first number of the pair); for At 96 h lung/plasma: plasma: plasma exposure at 96 h (second number of the pair). How it is done: as §1

For data set [11] the following is noted: cited from earlier work.
Data set [12] has as its target T1, human ether-á-go-go-related (hERG) ion channel (Homo sapiens, UniProt Q12809).
T1 construct: expressed in transfected cells; host or cells: hERG-CHO cell (CHO cells expressing hERG)
The data set can be described thus: hERG manual patch-clamp assay in hERG-CHO cell. In kind it is cell-based.
Description: A human ether-á-go-go-related (hERG) ion channel in vitro assay was performed in Shanghai Institute of Materia Medica, Shanghai, for the evaluation of cardiac liability testing. The assay was a manual patch-clamp method using electrophysiology in an hERG-CHO cell.

Data set [13] in a line: 14-day repeated oral dose toxicity and toxicokinetic head-to-head study in beagle dogs. In kind it is in vivo, beagle dog. To be noted: 14 days; for ECG: QT interval / cTnI: 200 mg/kg; for cTnI: one of three males, all others BLQ.
[14] abbreviates: BALB/c, mouse, in vivo, Iv. 1.0 mg/kg.
Where [15] appears, read: BALB/c, mouse, in vivo, Po. 6.25 mg/kg.
The mark [16] stands for this setting: beagle dogs, 200 mg/kg oral, listed as bedaquiline fumarate.

T1 sequence (Q12809 whole entry): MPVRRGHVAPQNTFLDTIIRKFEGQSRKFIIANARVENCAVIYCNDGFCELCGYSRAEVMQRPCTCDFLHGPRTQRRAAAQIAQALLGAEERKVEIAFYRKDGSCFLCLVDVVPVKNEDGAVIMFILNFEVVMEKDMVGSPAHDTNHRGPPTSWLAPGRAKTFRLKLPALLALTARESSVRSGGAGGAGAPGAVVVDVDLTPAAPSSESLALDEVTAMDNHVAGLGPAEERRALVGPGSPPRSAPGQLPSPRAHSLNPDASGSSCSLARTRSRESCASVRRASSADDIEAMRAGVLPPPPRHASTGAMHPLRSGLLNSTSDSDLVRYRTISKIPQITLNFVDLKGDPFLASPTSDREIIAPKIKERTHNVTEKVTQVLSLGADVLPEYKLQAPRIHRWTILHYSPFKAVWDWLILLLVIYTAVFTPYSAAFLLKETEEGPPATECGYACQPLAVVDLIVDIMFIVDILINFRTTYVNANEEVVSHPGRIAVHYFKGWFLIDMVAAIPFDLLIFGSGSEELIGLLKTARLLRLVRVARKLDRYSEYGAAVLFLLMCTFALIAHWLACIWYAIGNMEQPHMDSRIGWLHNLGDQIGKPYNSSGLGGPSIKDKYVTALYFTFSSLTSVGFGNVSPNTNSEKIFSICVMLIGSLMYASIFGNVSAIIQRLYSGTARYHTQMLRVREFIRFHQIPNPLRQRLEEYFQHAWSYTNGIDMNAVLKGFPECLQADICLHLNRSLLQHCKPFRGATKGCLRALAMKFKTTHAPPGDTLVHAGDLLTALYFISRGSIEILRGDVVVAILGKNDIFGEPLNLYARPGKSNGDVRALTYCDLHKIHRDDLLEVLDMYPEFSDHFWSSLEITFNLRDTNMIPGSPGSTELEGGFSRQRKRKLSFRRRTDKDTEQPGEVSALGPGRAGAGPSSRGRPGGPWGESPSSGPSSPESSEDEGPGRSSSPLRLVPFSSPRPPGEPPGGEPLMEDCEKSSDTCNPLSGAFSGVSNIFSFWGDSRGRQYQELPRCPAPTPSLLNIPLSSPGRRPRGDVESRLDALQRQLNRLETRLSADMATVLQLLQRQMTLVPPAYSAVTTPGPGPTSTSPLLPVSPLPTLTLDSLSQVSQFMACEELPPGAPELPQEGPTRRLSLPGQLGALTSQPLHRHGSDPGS

For `NC[C@H]1O[C@H](O[C@H]2[C@H](O)[C@@H](O[C@H]3O[C@H](CO)[C@@H](O)[C@H](N)[C@H]3O)[C@H](N)C[C@@H]2N)[C@H](O)[C@@H](O)[C@@H]1O` [KM, kanamycin], the MICs with M. tuberculosis H37Rv [1] (H37Rv) came to 0.730 µg/mL; in data set [2] it was 1.219 µg/mL; in data set [3], 1.146 µg/mL; in [4], 1.154 µg/mL; in [5] it was 2.417 µg/mL; in data set [6] it was 1.907 µg/mL.
As a reminder, the Cmax is the peak of the concentration-time curve. By Tmax is commonly meant the time from dosing to the highest level. Broadly, the half-life is the time in which the quantity being followed falls by half. Lower therefore signals rapid decline. For orientation: MIC means the lowest concentration found to suppress growth. For the compound `COc1nc2ccc(Br)cc2cc1[C@@H](c1ccccc1)[C@@](O)(CCN(C)C)c1cccc2ccccc12` [BDQ, bedaquiline], the “At 96 h lung/plasma: lung” value in [7] (Iv. 1.0 mg/kg) amounted to 62.9; in data set [7] (Po. 5.0 mg/kg) it was 58.8; in [10] (Iv. 1.0 mg/kg), 27.1; in [10] (Po. 6.25 mg/kg), 135. For the same compound, the “At 96 h lung/plasma: plasma” value in [7] (Iv. 1.0 mg/kg) is given as 1.89; in data set [7] (Po. 5.0 mg/kg) it was 1.52; in [10] (Iv. 1.0 mg/kg), 1.31; in data set [10] (Po. 6.25 mg/kg), 4.56. In addition, the AUC(0-inf) in [7] (in vivo, Iv. 1.0 mg/kg) came to 1930 ng·h/mL; in data set [7] (in vivo, Po. 5.0 mg/kg), 2680 ng·h/mL; in [10] (setting [14]) it was 2160 ng·h/mL; in [10] (setting [15]), 6360 ng·h/mL. Moreover, the AUC(0-t) in data set [7] (in vivo, Iv. 1.0 mg/kg) came out at 1830 ng·h/mL; in data set [7] (in vivo, Po. 5.0 mg/kg) it was 2610 ng·h/mL; in data set [10] (setting [14]), 2100 ng·h/mL; in data set [10] (setting [15]), 6040 ng·h/mL. Further, the Vd in data set [7] (in vivo, Iv. 1.0 mg/kg, read-out: Vdss) came to 10.3 L/kg; in data set [10] (BALB/c, mouse, in vivo, Iv. 1.0 mg/kg, read-out: Vdss) it was 6.21 L/kg. Also, the Cmax stood at 354 ng/mL in data set [7] (in vivo, Po. 5.0 mg/kg, read-out: Cmax) and 608 ng/mL in data set [10] (BALB/c, mouse, in vivo, Po. 6.25 mg/kg, read-out: Cmax). The bioavailability came to 27.7% in [7] (in vivo, Po. 5.0 mg/kg, read-out: F) and 47.1% in data set [10] (BALB/c, mouse, in vivo, Po. 6.25 mg/kg, read-out: F). Besides, the Tmax in [7] (in vivo, Po. 5.0 mg/kg, read-out: Tmax) was 0.83 h; in [10] (BALB/c, mouse, in vivo, Po. 6.25 mg/kg, read-out: Tmax) it was 5.33 h. In addition, the half-life was 37.6 h in data set [7] (Iv. 1.0 mg/kg); 29.3 h in [7] (Po. 5.0 mg/kg); 21.3 h in data set [10] (BALB/c, mouse, Iv. 1.0 mg/kg); 47.6 h in data set [10] (BALB/c, mouse, Po. 6.25 mg/kg). In addition, the MIC in the data set on M. tuberculosis H37Rv [1] was found to be 0.012 µg/mL (≈ 0.0216 µM); in data set [2], 0.053 µg/mL (≈ 0.0954 µM); in data set [3], 0.031 µg/mL (≈ 0.0558 µM); in data set [4], 0.043 µg/mL (≈ 0.0774 µM); in data set [5], 0.029 µg/mL (≈ 0.0522 µM); in [6], 0.037 µg/mL (≈ 0.0666 µM). In addition, the MBCs (in data set [8]; against M. tuberculosis H37Rv [9]) was 0.156 µg/mL each time. For the same compound, in [11], the elimination half-life was 5.5 months.
The term IC50 denotes the concentration needed to halve the response being measured. Turning to `COc1nc2ccc(Br)cc2cc1[C@@H](c1ccccc1)[C@@](O)(CCN(C)C)c1cccc2ccccc12.O=C(O)/C=C/C(=O)O` [Bedaquiline fumarate, bedaquiline fumarate], the IC50 in data set [12] (parent compound) was over 30000 nM. The mortality and moribundity entry in data set [13] (200 mg/kg oral once daily, male and female dogs) was “did not result in mortality and moribundity”. For the same compound, in [13] (beagle dogs, 200 mg/kg oral), the “ECG: HR” value is “An increased incidence of first- and second-degree atrioventricular block”; the “qualitative ECG changes associated with oral administration” value was “increased incidence of first and second-degree atrioventricular (AV) block”; the “ECG: QT interval” value was “Significant QT interval prolongation”; the cTnI is given as 440 (1/3 male) pg/mL. In data set [13] (setting [16]), the “ECG: QT interval” value was “significant QTc interval prolongation” and the cTnI is reported as 440 pg/mL.
Turning to `CO[C@H]1/C=C/O[C@@]2(C)Oc3c(C)c(O)c4c(O)c(c(/C=N/N5CCN(C)CC5)c(O)c4c3C2=O)NC(=O)/C(C)=C\C=C\[C@H](C)[C@H](O)[C@@H](C)[C@@H](O)[C@@H](C)[C@H](OC(C)=O)[C@@H]1C` [RFP, rifampicin], the MIC with M. tuberculosis H37Rv [1] is 0.014 µg/mL (≈ 0.017 µM); in data set [2], 0.057 µg/mL (≈ 0.0693 µM); in data set [3] it was 0.066 µg/mL (≈ 0.0802 µM); in data set [4], under 0.02 µg/mL; in data set [5], 0.035 µg/mL (≈ 0.0425 µM); in data set [6], 0.046 µg/mL (≈ 0.0559 µM).
With `COc1c(N2C[C@@H]3CCCN[C@@H]3C2)c(F)cc2c(=O)c(C(=O)O)cn(C3CC3)c12` [MFX, moxifloxacin], the MIC stood at 0.045 µg/mL (≈ 0.112 µM) against M. tuberculosis H37Rv [1]; 0.035 µg/mL (≈ 0.0872 µM) in data set [2]; 0.037 µg/mL (≈ 0.0922 µM) in data set [3]; 0.039 µg/mL (≈ 0.0972 µM) in data set [4]; 0.122 µg/mL (≈ 0.304 µM) in data set [5].
Take `CNCC[C@@](O)(c1cccc2ccccc12)[C@H](c1ccccc1)c1cc2cc(Br)ccc2nc1OC` [BDQ-M2]: the IC50 in data set [12] (metabolites) is 1730 nM.
For `NNC(=O)c1ccncc1` [INH, isoniazid], the MIC against M. tuberculosis H37Rv [1] was 0.031 µg/mL (≈ 0.226 µM); in data set [2], 0.024 µg/mL (≈ 0.175 µM); in data set [3], 0.028 µg/mL (≈ 0.204 µM); in data set [4], 0.03 µg/mL (≈ 0.219 µM); in data set [5], 0.034 µg/mL (≈ 0.248 µM); in data set [6] it was under 0.02 µg/mL.
